Test [1] addresses T1, Histone-lysine N-methyltransferase NSD2 (Homo sapiens, UniProt O96028).
T1 sequence (O96028 whole entry): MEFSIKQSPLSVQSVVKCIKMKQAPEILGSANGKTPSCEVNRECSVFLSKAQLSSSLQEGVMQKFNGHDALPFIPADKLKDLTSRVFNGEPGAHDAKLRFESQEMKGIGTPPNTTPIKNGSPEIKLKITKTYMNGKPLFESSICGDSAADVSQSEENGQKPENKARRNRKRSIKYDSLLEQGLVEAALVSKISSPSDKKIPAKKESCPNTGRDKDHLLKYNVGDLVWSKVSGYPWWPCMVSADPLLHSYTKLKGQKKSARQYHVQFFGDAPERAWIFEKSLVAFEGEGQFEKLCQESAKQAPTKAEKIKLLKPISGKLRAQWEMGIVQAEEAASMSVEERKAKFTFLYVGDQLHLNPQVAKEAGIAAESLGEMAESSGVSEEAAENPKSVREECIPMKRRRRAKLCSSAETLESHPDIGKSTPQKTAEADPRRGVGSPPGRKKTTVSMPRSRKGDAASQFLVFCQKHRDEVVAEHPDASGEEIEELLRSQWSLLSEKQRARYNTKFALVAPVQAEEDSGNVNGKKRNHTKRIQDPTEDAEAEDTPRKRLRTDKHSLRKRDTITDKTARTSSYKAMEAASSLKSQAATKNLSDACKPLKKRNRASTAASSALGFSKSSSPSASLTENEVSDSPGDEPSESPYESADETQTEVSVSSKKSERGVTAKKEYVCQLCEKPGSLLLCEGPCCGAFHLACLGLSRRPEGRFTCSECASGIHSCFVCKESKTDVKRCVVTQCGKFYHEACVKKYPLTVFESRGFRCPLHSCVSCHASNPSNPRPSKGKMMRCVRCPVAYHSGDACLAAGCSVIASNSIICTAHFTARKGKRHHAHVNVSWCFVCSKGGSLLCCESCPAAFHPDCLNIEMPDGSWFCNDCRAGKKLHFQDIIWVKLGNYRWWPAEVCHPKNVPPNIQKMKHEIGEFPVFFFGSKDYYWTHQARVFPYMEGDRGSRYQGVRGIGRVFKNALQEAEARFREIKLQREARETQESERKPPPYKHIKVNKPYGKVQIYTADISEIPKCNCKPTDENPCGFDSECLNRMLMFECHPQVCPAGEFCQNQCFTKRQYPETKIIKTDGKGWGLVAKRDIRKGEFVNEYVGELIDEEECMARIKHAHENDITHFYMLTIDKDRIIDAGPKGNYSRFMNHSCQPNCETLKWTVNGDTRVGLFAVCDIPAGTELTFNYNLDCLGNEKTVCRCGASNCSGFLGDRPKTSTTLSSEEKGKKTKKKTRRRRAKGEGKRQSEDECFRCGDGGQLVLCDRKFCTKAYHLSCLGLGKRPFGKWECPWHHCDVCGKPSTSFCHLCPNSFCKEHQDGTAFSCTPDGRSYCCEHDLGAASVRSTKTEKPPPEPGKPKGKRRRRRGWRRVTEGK
The class given is biochemical.

The next test concerns INS1. Briefly: INS-1E survival protection against cytokine death – cell-based, luminescence, retest, dose response (AID 449756).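 Further: cell death triggered by IL-1 beta plus TNF-alpha plus IFN-gamma mixture; protective hits raise ATP signal compared with cytokine alone wells.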 Format: functional. The following applies: Rattus norvegicus.
Test [2] can be described thus: viability of uninfected HEp-2 cells – cell-based, HTS, cytotoxicity control for RSV inhibitor project, dose response (AID 2410). The class given is functional. The following applies: human respiratory syncytial virus.
The target of test [3] is Voltage-dependent T-type calcium channel subunit alpha-1H (Homo sapiens, UniProt O95180). The class given is functional.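 Further: channel activity triggered by adding a high calcium stimulation buffer.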
In a further test the target is T2, Protein skinhead-1 (Caenorhabditis elegans, UniProt P34707).
T2 sequence (P34707 whole entry): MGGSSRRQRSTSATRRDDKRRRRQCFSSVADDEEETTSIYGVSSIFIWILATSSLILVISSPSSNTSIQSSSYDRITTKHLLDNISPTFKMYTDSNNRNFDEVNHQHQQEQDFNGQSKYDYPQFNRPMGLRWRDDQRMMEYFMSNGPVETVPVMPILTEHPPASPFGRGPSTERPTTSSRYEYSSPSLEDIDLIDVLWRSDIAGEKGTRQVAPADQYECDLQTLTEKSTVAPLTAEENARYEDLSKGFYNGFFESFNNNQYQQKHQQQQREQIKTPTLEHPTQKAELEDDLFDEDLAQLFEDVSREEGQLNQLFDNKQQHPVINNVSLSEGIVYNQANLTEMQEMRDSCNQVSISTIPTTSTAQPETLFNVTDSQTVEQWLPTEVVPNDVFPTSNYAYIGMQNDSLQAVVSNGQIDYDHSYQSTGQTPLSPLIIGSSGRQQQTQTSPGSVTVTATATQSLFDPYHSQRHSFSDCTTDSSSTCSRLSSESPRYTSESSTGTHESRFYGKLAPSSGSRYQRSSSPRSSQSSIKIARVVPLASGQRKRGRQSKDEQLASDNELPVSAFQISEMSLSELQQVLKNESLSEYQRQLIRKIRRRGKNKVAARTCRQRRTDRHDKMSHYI
Format: functional.

The nature of test [4]: cells. Format: functional, cell-based.
A short description of test [5]: cells. The class given is functional, cell-based. The source holds these as a separate data set.
A further test concerns the target T3, Cytochrome P450 1A2 (Homo sapiens, UniProt P05177).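 Further: PubChem cytochrome P450 panel assay, CYP1A2 panel member.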
T3 sequence (P05177 whole entry): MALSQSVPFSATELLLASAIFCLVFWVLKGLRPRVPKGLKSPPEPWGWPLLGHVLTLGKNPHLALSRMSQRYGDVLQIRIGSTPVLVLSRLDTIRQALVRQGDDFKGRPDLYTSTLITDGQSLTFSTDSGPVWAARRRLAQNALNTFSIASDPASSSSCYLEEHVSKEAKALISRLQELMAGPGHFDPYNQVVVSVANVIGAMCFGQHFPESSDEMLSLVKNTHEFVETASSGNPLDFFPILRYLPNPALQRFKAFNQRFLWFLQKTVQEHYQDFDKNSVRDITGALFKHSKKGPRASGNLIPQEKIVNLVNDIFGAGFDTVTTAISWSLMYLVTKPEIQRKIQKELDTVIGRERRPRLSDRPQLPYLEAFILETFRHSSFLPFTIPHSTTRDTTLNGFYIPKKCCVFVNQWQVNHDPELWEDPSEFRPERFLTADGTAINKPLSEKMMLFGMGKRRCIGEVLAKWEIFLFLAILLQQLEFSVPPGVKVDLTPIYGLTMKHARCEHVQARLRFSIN

Test [6] in a line: A Cell Based Secondary Assay To Explore Cytotoxicity of Compounds that Sensitize Mycobacterium Tuberculosis to Beta-Lactam Antibiotics. The class given is functional.
Another test has as its target Cytochrome P450 2C19 (Homo sapiens, UniProt P33261). Briefly: Cytochrome panel assay with activity outcomes. Panel member name: p450-cyp2c19 Compounds with AC50 equal or less than 10 uM are considered active. The class given is functional. The settings on record: read-out: AC50.
The target of another test is Cytochrome P450 2D6 (Homo sapiens, UniProt P10635).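 Further: CYP2D6 member of a cytochrome P450 panel assay.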
Test [7] is described as follows: P. falciparum Dd2 growth inhibitors, dose response, SYBR Green, cherry-picked samples (AID 1159567). The class given is functional, cell-based.
A short description of test [8]: growth inhibition of yeast DHODH-expressing 3D7 parasites – SYBR Green, dry powder samples, dose response (AID 1159570).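 Further: parasite growth measured after 72 hours of compound exposure.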 Format: functional, cell-based.
The nature of test [9]: Dd2 malaria parasite growth inhibition potency – SYBR Green, dry powder samples, dose response (AID 1159566).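 Further: potency for growth inhibition with lower SYBR green DNA signal.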 The class given is functional, cell-based.
Test [10] can be described thus: growth inhibition of PfATP4-mutant resistant parasites – NITD609-resistant line, SYBR Green, dry powder, dose response (AID 1159571).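 Further: parasites synchronized at ring stage by sorbitol before testing.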 Format: functional, cell-based.
Another test deals with Nonstructural protein 1 (Influenza A virus, UniProt Q194T2). The class given is functional, Influenza A virus (A/California/07/2009(H1N1)).
Test [11] in a line: A549 cell cytotoxicity, dose response, cytotoxicity control, plate reader, cherry-pick, antagonist series (AID 743412). The class given is functional, cell-based.
Test [12] is described as follows: microbe, parasite or virus in culture. The class given is functional. The following applies: Mycobacterium tuberculosis.
Test [13] is described as follows: Trypanosoma cruzi growth suppression in host cells – NIH3T3 host cells, beta-gal luminescence, confirmation (AID 2044).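 Further: intracellular parasites grown in NIH/3T3 mouse fibroblasts as host cells; luminescent beta-galactosidase reporter signal from transgenic T. cruzi replicating inside host cells; inhibitors lower the luminescence signal.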 The class given is functional, cell-based.
The nature of test [14]: NIH3T3 cell viability loss – ATP luminescence, mouse fibroblasts, counter-screen, dose response (AID 2010).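 Further: cells exposed to compound for about 90 hours before reading.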 Format: functional, cell-based.
Test [15] in a line: Luminescence Cell-Based Dose Retest to Confirm Inhibitors of Cancer Stem Cells. [Related pubchem assays (depositor defined):AID2717, AID2721]. Format: functional. The settings on record: Homo sapiens.
The subject of the next test is H9c2. The test is described as follows: cells. Format: functional, cell-based. The settings on record: Rattus norvegicus, H9c2, Myocardium.
In the next test the target is T4, Streptokinase A (Streptococcus pyogenes serotype M1, UniProt P10520).
T4 sequence (P10520 whole entry): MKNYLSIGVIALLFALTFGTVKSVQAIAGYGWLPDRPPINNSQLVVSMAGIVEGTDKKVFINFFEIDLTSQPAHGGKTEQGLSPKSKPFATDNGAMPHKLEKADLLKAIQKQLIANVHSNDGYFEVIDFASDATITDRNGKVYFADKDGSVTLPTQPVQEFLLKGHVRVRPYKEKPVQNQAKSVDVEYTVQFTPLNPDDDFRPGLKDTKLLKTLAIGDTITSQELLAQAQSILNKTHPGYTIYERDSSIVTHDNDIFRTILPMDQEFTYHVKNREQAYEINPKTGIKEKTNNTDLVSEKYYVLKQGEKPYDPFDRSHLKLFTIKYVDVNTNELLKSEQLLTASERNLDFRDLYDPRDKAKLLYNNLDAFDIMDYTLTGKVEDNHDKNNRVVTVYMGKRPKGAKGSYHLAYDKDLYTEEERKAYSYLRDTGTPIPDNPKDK
The test is described as follows: viability-normalized secreted streptokinase activity reduction – plasminogen activation absorbance, OD405, dose response (AID 1914).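 Further: secreted streptokinase activity via plasminogen activation per viability signal from cell pellet.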 Format: functional, Streptococcus pyogenes M1 GAS.

The subject of the next test is Streptococcus. Briefly: GAS UMAA2166 growth inhibition – luminescence, BacTiterGlo, counter-screen for streptokinase expression inhibitor project, dose response (AID 1915).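 Further: potency for reduction of bacterial viability or growth.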 The class given is functional, organism-based. (In general: A counterscreen serves to expose hits that act by an unwanted route or on another target.)

Each structure is given as a SMILES string. Calls of active or inactive are those of the source.

Chain of Voltage-dependent T-type calcium channel subunit alpha-1H (O95180 whole entry): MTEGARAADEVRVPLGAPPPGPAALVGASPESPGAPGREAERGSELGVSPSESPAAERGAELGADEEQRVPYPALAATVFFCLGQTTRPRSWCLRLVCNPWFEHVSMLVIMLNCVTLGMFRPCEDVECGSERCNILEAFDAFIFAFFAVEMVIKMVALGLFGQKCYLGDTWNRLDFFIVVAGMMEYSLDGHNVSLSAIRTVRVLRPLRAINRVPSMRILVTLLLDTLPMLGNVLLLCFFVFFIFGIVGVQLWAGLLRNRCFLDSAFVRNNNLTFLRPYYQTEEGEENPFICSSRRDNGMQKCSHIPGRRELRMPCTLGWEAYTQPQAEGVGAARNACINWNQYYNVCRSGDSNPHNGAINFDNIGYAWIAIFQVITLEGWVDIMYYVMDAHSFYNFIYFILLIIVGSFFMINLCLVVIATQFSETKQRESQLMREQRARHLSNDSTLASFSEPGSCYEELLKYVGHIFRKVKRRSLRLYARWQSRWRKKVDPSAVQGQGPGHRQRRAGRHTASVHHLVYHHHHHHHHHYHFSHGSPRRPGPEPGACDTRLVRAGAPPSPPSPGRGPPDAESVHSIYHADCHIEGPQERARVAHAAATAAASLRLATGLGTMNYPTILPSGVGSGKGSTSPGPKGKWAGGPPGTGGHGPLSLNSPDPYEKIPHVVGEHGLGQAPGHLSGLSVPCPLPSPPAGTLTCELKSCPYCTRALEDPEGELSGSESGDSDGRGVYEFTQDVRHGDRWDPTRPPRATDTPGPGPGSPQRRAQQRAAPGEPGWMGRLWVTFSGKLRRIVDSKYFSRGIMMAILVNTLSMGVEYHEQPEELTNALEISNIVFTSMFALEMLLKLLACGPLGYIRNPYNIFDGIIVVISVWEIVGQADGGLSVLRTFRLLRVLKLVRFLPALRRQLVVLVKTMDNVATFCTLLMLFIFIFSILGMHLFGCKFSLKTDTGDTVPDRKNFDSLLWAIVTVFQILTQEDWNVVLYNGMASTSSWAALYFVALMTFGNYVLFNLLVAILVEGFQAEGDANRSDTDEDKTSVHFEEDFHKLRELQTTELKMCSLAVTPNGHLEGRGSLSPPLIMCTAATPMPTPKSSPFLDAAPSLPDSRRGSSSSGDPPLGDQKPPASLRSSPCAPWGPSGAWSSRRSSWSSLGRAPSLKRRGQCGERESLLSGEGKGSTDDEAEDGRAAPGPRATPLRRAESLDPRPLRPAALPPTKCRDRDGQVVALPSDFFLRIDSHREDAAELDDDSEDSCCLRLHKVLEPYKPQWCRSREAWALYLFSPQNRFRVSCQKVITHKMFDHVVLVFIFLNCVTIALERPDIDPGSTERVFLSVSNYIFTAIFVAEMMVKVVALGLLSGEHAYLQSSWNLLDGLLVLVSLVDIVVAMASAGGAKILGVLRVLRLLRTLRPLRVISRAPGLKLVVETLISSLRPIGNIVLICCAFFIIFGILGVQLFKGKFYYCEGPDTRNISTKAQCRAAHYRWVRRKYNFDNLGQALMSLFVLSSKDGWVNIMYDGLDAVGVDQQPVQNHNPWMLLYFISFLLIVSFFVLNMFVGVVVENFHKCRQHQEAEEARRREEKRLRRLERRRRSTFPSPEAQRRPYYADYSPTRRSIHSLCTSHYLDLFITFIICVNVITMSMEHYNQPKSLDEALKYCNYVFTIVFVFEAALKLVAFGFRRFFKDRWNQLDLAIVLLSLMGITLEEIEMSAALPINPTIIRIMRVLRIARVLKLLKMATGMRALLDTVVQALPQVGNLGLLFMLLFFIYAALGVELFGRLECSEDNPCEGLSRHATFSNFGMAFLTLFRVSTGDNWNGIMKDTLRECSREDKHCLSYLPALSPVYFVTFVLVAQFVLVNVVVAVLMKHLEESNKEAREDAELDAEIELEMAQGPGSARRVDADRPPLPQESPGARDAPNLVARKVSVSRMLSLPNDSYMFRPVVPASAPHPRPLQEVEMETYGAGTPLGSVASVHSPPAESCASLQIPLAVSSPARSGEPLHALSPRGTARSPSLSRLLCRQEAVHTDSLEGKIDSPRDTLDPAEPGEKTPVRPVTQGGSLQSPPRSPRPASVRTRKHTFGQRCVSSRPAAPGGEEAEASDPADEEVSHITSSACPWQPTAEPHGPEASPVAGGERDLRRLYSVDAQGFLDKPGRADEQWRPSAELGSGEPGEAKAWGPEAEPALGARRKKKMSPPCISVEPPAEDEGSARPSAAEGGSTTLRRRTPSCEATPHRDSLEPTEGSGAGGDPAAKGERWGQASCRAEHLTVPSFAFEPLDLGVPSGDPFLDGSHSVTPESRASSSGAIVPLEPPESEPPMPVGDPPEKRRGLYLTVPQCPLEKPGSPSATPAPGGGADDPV
Chain of Nonstructural protein 1 (Q194T2 whole entry): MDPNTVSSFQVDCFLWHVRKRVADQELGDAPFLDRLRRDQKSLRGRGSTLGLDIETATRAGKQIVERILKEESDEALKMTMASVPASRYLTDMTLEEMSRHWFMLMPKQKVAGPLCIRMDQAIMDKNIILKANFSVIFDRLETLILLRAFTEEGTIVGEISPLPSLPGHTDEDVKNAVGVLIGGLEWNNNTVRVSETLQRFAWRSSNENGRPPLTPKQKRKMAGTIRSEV
Chain of Cytochrome P450 2C19 (P33261 whole entry): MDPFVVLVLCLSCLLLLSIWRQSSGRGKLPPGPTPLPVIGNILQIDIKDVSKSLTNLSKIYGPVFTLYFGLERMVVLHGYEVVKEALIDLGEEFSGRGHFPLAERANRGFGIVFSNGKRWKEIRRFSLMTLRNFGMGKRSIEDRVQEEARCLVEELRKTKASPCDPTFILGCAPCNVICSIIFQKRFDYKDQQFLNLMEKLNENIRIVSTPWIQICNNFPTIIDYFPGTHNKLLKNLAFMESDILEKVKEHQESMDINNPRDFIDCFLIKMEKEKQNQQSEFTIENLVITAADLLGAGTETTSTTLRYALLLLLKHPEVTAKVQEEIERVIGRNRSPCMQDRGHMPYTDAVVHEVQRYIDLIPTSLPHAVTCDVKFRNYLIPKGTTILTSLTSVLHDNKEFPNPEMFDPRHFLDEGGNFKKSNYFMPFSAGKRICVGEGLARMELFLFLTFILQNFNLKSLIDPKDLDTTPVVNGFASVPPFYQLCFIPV
Chain of Cytochrome P450 2D6 (P10635 whole entry): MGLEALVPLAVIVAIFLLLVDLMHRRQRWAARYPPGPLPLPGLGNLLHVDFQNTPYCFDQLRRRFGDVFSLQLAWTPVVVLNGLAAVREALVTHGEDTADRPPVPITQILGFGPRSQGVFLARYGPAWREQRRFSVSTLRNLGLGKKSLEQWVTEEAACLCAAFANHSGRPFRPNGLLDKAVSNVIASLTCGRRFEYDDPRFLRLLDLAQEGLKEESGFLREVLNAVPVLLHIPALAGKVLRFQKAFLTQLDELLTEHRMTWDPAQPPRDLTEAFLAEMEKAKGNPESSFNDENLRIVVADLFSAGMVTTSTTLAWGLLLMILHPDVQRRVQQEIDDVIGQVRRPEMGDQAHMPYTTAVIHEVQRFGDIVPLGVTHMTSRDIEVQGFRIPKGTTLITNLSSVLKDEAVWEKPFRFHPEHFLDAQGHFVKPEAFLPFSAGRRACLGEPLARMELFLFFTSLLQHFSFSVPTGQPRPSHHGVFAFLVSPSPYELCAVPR

As usually defined, the AC50 is the concentration at which the activity in the assay is half-maximal. As to `Nc1c(C(=O)OCC2CCCO2)c2nc3ccccc3nc2n1C1CCCCC1` (centres undefined), in [1], the AC50 was 10 µM (active).

Usually EC50 stands for the concentration needed to bring the measured effect to its halfway point. The IC50 is the midpoint of a concentration-inhibition curve. For `CC1Cc2ccccc2N1C(=O)CSc1nc2ccccc2o1` (centres undefined), the AC50 in the test with INS1 was > 260 µM (inactive). For the same molecule, in test [2], the CC50 was 26.9 µM (active). Also, the EC50 in test [3] is 9.56 µM (active). Also, on Protein skinhead-1, the IC50 is > 100 µM (inactive).

Take `O=S(=O)(c1cccc(S(=O)(=O)N2CCC(Cc3ccccc3)CC2)c1)N1CCOCC1`: the EC50 in [3] is 8.09 µM (active).

As to `Nc1nc(SCC(=O)N2CCCC2)nc(O)c1-c1ccccc1`, the EC50 in the test “cells [4]” and in “cells [5]” was > 350 µM (not active) each time.

With `COC(=O)[C@@]1(Cc2ccc(F)cc2)[C@H]2c3cc(C(=O)N(C)C)n(Cc4ccc(OC)c(OC)c4)c3C[C@H]2CN1C(=O)c1ccccc1`, the AC50 is 31.6 µM (inconclusive) at Cytochrome P450 1A2, 39.8 µM (inconclusive) on Cytochrome P450 2C19 and 39.8 µM (inconclusive) on Cytochrome P450 2D6. The CC50 in test [6] is > 40 µM (active).

Take `CC1(C)CN(c2cccc(C#N)c2)C1=O`: in test [1], the AC50 is 10.7 µM (active).

With `Cc1ccc(S(=O)(=O)NC(=O)c2ccc(-c3ccc(-c4ccccc4)cc3)o2)c(C)c1`, the EC50 in test [3] was 3.33 µM (active).

As to `CCOC(=O)c1c(C)nc2sc(C(=O)Nc3ccccc3)c(N)c2c1-c1ccc(OC)cc1`, the CC50 in test [6] was 3.99 µM (active).

Turning to `Cc1cccc(N2CCN(CC(=O)Nc3nccs3)CC2)c1C`, the EC50 in test [3] is 6.29 µM (active).

As for `Cc1ccc(S(=O)(=O)N(C)C[C@H]2OCc3ccccc3-c3c(n(C)c4ccccc34)C(=O)N([C@H](C)CO)C[C@@H]2C)cc1`, the AC50 in [7] is 2.36 µM (active); in test [8], 1.27 µM (active); in test [9], 1.47 µM (active); in test [10], 1.08 µM (active).

Consider `O=C(CN1CCCC1)N/N=C/c1c(O)ccc2ccccc12`, for which the EC50 was 8.38 µM (active) in the test “cells [4]” and > 350 µM (not active) in “cells [5]”. For the same molecule, on Nonstructural protein 1, the IC50 is 9.17 µM (active).

In the case of `O=C(Nc1ccc(N2CCOCC2)c(S(=O)(=O)Nc2ccccc2Cl)c1)c1ccc(F)cc1`, the AC50 in [11] was > 52 µM (inactive).

On to `CO[C@@H]1CN(C)C(=O)c2ccc(NC(=O)c3nc4ccccc4s3)cc2OC[C@H](C)N(Cc2ccncc2)C[C@@H]1C`, for which the AC50 was 0.985 µM (active) in [7], 1.86 µM (active) in test [8], 0.792 µM (active) in test [9] and 0.725 µM (active) in test [10].

On to `Cc1ccccc1N1CCN(C(=O)c2ccc(Oc3ccc(C(F)(F)F)cn3)cc2)CC1`, for which, in test [12], the CC50 was > 40 µM (active). The EC50 was 2.32 µM (active) in [13], > 60 µM (not active) in [14] and 5.89 µM (active) in test [3]. Besides, in test [15], the AC50 is 3.43 µM (active).

With `COc1cc(C(=O)Nc2sc(C)c(C)c2C(=O)O)cc(OC)c1OC`, the EC50 in the test “cells [4]” and in the test “cells [5]” was > 350 µM (not active) in each case.

Turning to `COc1ccc2c3c(n(C)c2c1)[C@@H](CO)N(C(=O)C1CC1)CC31CCN(C(=O)Nc2cccc(F)c2)CC1`, the AC50 is 0.506 µM (active) in test [7], 0.171 µM (active) in [8], 0.343 µM (active) in test [9] and 0.441 µM (active) in [10].

Consider `c1ccc(-c2oc3ncnc(NCCN4CCOCC4)c3c2-c2ccccc2)cc1`, for which, in [6], the CC50 was > 40 µM (active). Besides, the IC50 in the test on H9c2 was > 79 µM (inactive).

Regarding `FC(F)Oc1ccccc1C1CC(c2ccc(Br)s2)Nc2ncnn21` (centres undefined), in test [6], the CC50 was > 40 µM (active). Also, the EC50 on Streptokinase A and in the test with Streptococcus was > 150 µM (not active) in each case.
